According to ChEMBL document CHEMBL6127070, “Design, synthesis, and molecular dynamic simulations of some novel benzo[d]thiazoles with anti-virulence activity against Pseudomonas aeruginosa” (Eur J Med Chem, 2024):
pIC50: −log10 of the molar value. Converted amounts (≈) assume the structure as drawn. The source made the active and inactive calls. The calls are words filed in the database; no cut-off is given here.

Experiments:
Pseudomonas aeruginosa [1] = assay: Inhibition of biofilm formation in Pseudomonas aeruginosa PAO1 at 50 uM incubated for 24 hrs by crystal violet staining based analysis relative to control; type: functional
[2] = Inhibition of quorum sensing system in Pseudomonas aeruginosa PAO1 transfected with lasB-gfp reporter gene incubated for >=12 hrs by fluorescence based microplate reader analysis
[3] = Inhibition of quorum sensing system in Pseudomonas aeruginosa MH602 transfected with lasB promoter expressing gfp-ASV at 62.5 uM incubated for 20 hrs by microplate reader analysis relative to control
[4] = Inhibition of quorum sensing system in Pseudomonas aeruginosa MH602 transfected with lasB promoter expressing gfp-ASV at 250 uM incubated for 20 hrs by microplate reader analysis relative to control
[5] = Inhibition of quorum sensing system in Pseudomonas aeruginosa MH602 transfected with lasB promoter expressing gfp-ASV at 125 uM incubated for 20 hrs by microplate reader analysis relative to control
[6] = Inhibition of quorum sensing system in Pseudomonas aeruginosa transfected with lasB-gfp reporter gene incubated for 20 hrs by fluorescence based multilabel plate reader analysis
Pseudomonas aeruginosa [7] = assay: Antibiofilm activity against Pseudomonas aeruginosa assessed as inhibition of biofilm biomass at 300 microg/ml measured after 48 hrs relative to control; type: functional
Pseudomonas aeruginosa [8] = assay: Inhibition of biofilm formation in Pseudomonas aeruginosa PAO1 at 64 microg/ml relative to control; type: functional
[9] = Inhibition of quorum sensing system in Pseudomonas aeruginosa PAO1 assessed as reduction in pyocyanin production at 256 microg/ml relative to control; conditions: dose 256.0 µg/ml
Pseudomonas aeruginosa [10] = assay: Antibacterial activity against Pseudomonas aeruginosa assessed as bacterial mortality in presence of clarithromycin relative to control; type: functional
Pseudomonas aeruginosa [11] = assay: Antibacterial activity against Pseudomonas aeruginosa assessed as bacterial mortality in presence of ciprofloxacin relative to control; type: functional
Pseudomonas aeruginosa [12] = assay: Inhibition of biofilm formation in Pseudomonas aeruginosa at MIC incubated for 48 hrs by crystal violet staining based analysis relative to control; type: functional
Pseudomonas aeruginosa [13] = assay: Antibacterial activity against Pseudomonas aeruginosa by CLSI protocol based broth microdilution method; type: functional
Pseudomonas aeruginosa [14] = assay: Antibacterial activity against Pseudomonas aeruginosa assessed as effect on bacterial growth at 16 microg/ml incubated for 24 hrs by growth curve analysis; type: functional, organism-based; conditions: dose 16.0 µg/ml
Pseudomonas aeruginosa [15] = assay: Antivirulence activity in Pseudomonas aeruginosa assessed as inhibition of pyocyanin production at sub-MIC by chloroform-HCl extraction method relative to control; type: functional
Pseudomonas aeruginosa [16] = assay: Antivirulence activity in Pseudomonas aeruginosa assessed as inhibition of rhamnolipids production at sub-MIC by spectrophotometric method relative to control; type: functional
Pseudomonas aeruginosa [17] = assay: Inhibition of biofilm formation in Pseudomonas aeruginosa at sub-MIC by crystal violet staining based analysis relative to control; type: functional
Pseudomonas aeruginosa [18] = assay: Inhibition of biofilm formation in Pseudomonas aeruginosa assessed as absorbance by measuring OD at 570 nm at sub-MIC by crystal violet staining based analysis (reference value: 0.635 +/- 0.014); type: functional
Pseudomonas aeruginosa [19] = assay: Antivirulence activity in Pseudomonas aeruginosa assessed as inhibition of pyocyanin production by measuring OD at […] at sub-MIC by chloroform-HCl extraction method relative to control; type: functional
Pseudomonas aeruginosa [20] = assay: Antibacterial activity against Pseudomonas aeruginosa assessed as 1/4 MIC by CLSI protocol based broth microdilution method; type: functional

## [O-][S+](Cc1ccc(Cl)cc1)c1nc2cc(Cl)ccc2o1 (stereo unspecified)
Pseudomonas aeruginosa [1]
  inhibition at 50 µM: 46.1%
[2]
  pIC50: 5.68

## O=C(Cn1cc(-c2ccc([N+](=O)[O-])cc2)nn1)Nc1nc2ccccc2[nH]1
[3]
  inhibition: 63.7%
[4]
  inhibition: 68.2%
[5]
  inhibition: 67.1%

## COc1ccc(C(=O)CSc2nc3ccccc3s2)c(OC)c1
[6]
  IC50: 45.5 µg/mL (≈ 132 µM)
Pseudomonas aeruginosa [7]
  inhibition at 300 µg/mL: 70%

## COc1ccc(OCCCCCCCC(=O)NNC(=O)Cn2c(=O)oc3ncccc32)cc1
Pseudomonas aeruginosa [8]
  inhibition at 64 µg/mL: 40%
[9]
  inhibition: 46.9%
Pseudomonas aeruginosa [10]
  mortality: 49.79%
Pseudomonas aeruginosa [11]
  mortality: 48.27%

## COC(=O)c1ccc(/N=N/c2c(N)nn3c(N)c(C#N)c(-c4ccc(N(C)C)cc4)nc23)cc1
Pseudomonas aeruginosa [12]
  inhibition (INH): 69%

## CC[C@H]1OC(=O)[C@H](C)[C@@H](O[C@H]2C[C@@](C)(OC)[C@@H](O)[C@H](C)O2)[C@H](C)[C@@H](O[C@@H]2O[C@H](C)C[C@H](N(C)C)[C@H]2O)[C@](C)(O)C[C@@H](C)CN(C)[C@H](C)[C@@H](O)[C@]1(C)O [AZITHROMYCIN]
Pseudomonas aeruginosa [13]
  SubMIC: 16 µg/mL
Pseudomonas aeruginosa [13]; Pseudomonas aeruginosa
  MIC: 85.4 µM (≈ 64 µg/mL)
Pseudomonas aeruginosa [14]
  Activity: inactive
Pseudomonas aeruginosa [15]
  inhibition (INH): 51.5%
Pseudomonas aeruginosa [16]
  inhibition (INH): 47.4%
Pseudomonas aeruginosa [17]
  inhibition (INH): 21.7%
Pseudomonas aeruginosa [18]
  OD: 0.307
Pseudomonas aeruginosa [19]
  OD: 0.216
Pseudomonas aeruginosa [20]
  MIC: 20.1 µM (≈ 15.1 µg/mL)
